The results in this text go back to patent US11939324B2, “Compounds for the treatment of epilepsy, neurodegenerative disorders and other CNS disorders” (reMYND N.V., priority 2017, dated 2024).

The test system of one assay is VGCC. The experiment in a line: Ex-vivo inhibition of VGCC activity: KCl-induced Ca2+ influx in primary neurons (Fura2). The assay is classed as cell-based. Particulars: 1.5 μm compound, 45 mM KCl, primary neurons from mouse embryos, FIG. 5, p<0.0001. The protocol: Compound 6 was tested for its ability to inhibit VGCC activity in primary neurons. Neurons from mouse embryos were harvested and cultured using standard methods (such as used in Schlager et al., 2014. Cell reports, 8(5), pp. 1248-56). To stimulate VGCC activity, neurons were depolarized using 45 mM KCl and incubated with vehicle or compound at a concentration of 1.5 μm. Calcium influx was measured using fluorescent cytosolic Ca^2+ detection reagent Fura2.
Changes in cytosolic Ca^2+ concentrations were measured after loading the cells with Fura-2 AM (Sigma-Aldrich), a cell permeable fluorescent probe for Ca^2+. Briefly, Fura-2-AM was dissolved in DMSO plus 20% Pluronic Acid (F-127) (Invitrogen) in a 1:1 ratio and diluted in medium to a final concentration of 0.5 μM. […] Next, changes in cytosolic calcium were measured using a FlexStation 3 microplate reader (Molecular Devices) and quantified ratiometric, by calculating changes in the amount of cytosolic Ca^2+ bound Fura-2 (fluorescence intensity at 340 nm) relative to the amount of Ca^2+ unbound Fura-2 (fluorescence intensity at 380 nm). […]
Compounds were tested at […] for their ability to inhibit Ca^2+ influx in primary neurons (FIG. 5) as described in Example 14. […] The percentage (%) inhibition of Ca^2+ influx relative to vehicle treated neurons was calculated.

Another assay has as its system TAU phosphorylation. Put plainly: In vivo inhibition of TAU phosphorylation in brain of APP*PS1 mice (Western analysis). Particulars: 20 mg/kg subcutaneously daily for 2 weeks, 5 month old APP*PS1 mice, versus vehicle, FIG. 6. The text has this: FIG. 6 represents graphs plotting quantifications of pathologically phosphorylated TAU species determined by Western blots of brain extracts from transgenic APP mice treated with vehicle or with exemplary Compound 6. The graphs depict the mean normalized TAU signals±SEM. ** indicate p<0.01 relative to vehicle treated animals. The TAU signals were obtained by using antibodies directed against: • (A) AT8 p-TAU, indicates the antibody recognising p-TAU phosphorylated on serine 202 and threonine 205 • (B) AD2 p-TAU, indicates the antibody recognising p-TAU phosphorylated on serines 396 and 404 • (C) phosphorylated TAU on T231 • (D) phosphorylated TAU on S262.
Transgenic human 5 month old APP*PS1 mice (The Journal of Neuroscience, Sep. 1, 2000, 20(17):6452-6458) were treated daily subcutaneously with 20 mg/kg Compound 6 for 2 weeks.
At the end of the treatment period, mice were sacrificed and the corresponding brains were used for biochemical analysis.

Assay [1] deals with Transgenic human APP mice. The experiment in a line: Morris Water Maze cognition test in transgenic APP mice. The class given is in vivo. The following applies: 20 mg/kg subcutaneously daily for 8 weeks, versus vehicle. The protocol: P-value refers to the treatment of transgenic APP mice with exemplary Compound 6 versus vehicle.
Transgenic human of 4 months of age APP mice (THE JOURNAL OF BIOLOGICAL […] Vol. 274, No. 10, Issue of March 5, pp. 6483-6492, 1999) were treated subcutaneously, daily for 8 weeks with Compound 6 at 20 mg/kg. Cognition was assessed using the Morris Water Maze test. […] After the learning phase a probe test was conducted in which the platform was removed from the water bath to evaluate the spatial memory of the location of the platform.
Both indices indicate that compound treated mice have improved cognitive performance almost identical to wild type controls compared to vehicle treated mice.

For the next assay, the system named is CA1 pyramidal neurons. The experiment in a line: Neuronal firing rate in brain slices from tgAPP mice (patch clamp, CA1). The assay is classed as cell-based, mouse. Particulars: 2 μM, 1 hr perfusion, higher stimuli, FIG. 8. The protocol: Brain slices from wild type and tgAPP mice were incubated with DMSO or Compound 6. Neurons were stimulated with increasing currents and the frequency of action potentials (firing rate) was measured.
In tgAPP mice the frequency of action potentials at higher stimuli was higher.
Acute sagittal brain slices from WT or hAPP mice were prepared by decapitation of the mice after isoflurane anaesthesia. Brains were removed quickly and immersed during 3-4 min in ice-cold freshly prepared cutting artificial cerebrospinal fluid (cutting aCSF) containing (in mM) 214 sucrose, 2.5 KCl, 2 CaCl2, 2 MgSO4, 1.25 NaH2PO2, 26 NaHCO3 and 10 glucose and oxygenated with 95% O2/5% CO2. Sagittal 350 μm slices were generated using a vibratome (VT 1000S; Leica Microsystems) and were incubated in standard carboxygenated aCSF (in mM: 125 NaCl, 2.5 KCl, 2 CaCl2, 2 MgSO4, 1.25 NaH2PO2, 26 NaHCO3 and 10 glucose, osmolarity 305 mOsm) at 34° C. during 20 min. The incubation continued at room temperature (RT) for another hour before each slice was transferred to a submerged recording chamber and perfused continuously with carboxygenated aCSF. […]
Dendritic firing rate of CA1 cells was recorded in response to hyperpolarizing and depolarizing steps (−0.4 to +0.45 nA, steps of 0.05 nA) after a 1 hr perfusion with vehicle or compound at 2 μM. […]

In another assay the test system is mouse brain slices. The experiment in a line: Afterhyperpolarization of single action potentials in mouse brain slices. The class given is cell-based. The following applies: versus vehicle, FIG. 9, p<0.05. How it is done: FIG. 9 represents a graph plotting the afterhyperpolarization (AHP) amplitude of single action potentials by somatic current clamp recordings using mouse brain slices incubated with vehicle or Compound 6. * indicates p<0.05.
Somatic or dendritic (>200 μm from the soma) current-clamp recordings were performed at RT (24 to 28° C.) and slices were continuously perfused with carboxygenated standard aCSF, supplemented with control or test article REM0043039 at 2 μM. For whole-cell recordings, patch pipettes were filled with a solution containing (in mM) 140 K-gluconate, 5 NaCl, 2 MgCl2, 10 HEPES, 0.5 EGTA, 2 MgATP, 0.4 NaGTP, osmolarity 305, pH adjusted to 7.25 with KOH. The soma or dendrite of large CA1 pyramidal neurons were identified and patch-clamped after visual approach of the recording pipette using a combination of infrared light and differential interference contrast (DIC) optics. […] Recordings were terminated when the series resistances exceeded 40 MO. Signals were digitized and low-pass filtered at 10 kHz. The signal was amplified with an Axopatch 200B amplifier, digitized by a Digidata 155 interface and sampled with Clampex 10 (Molecular Devices, CA). […]
Action potentials (AP) after electrical stimulation of mouse brain slices were analysed (FIG. 9). […]

Regarding `O=C(NCCc1c[nH]c2ccc(F)cc12)c1cc(Cc2cc(F)ccc2F)on1` [Compound 6], in the assay on VGCC, the “Ca^2+ influx upon KCl depolarization” value is reported as “significantly reduced”. Besides, the “TAU phosphorylation in brain extracts” value in the assay on TAU phosphorylation is on record as “more effectively reduced TAU phosphorylation”. Besides, in assay [1] (FIG. 7A), the “search path during training phase of Morris Water Maze” value is “reduced search path”. Moreover, the “annulus crossing index score in probe test” value in assay [1] (FIG. 7B) is reported as “higher annulus crossing index score”. The “frequency of action potentials (firing rate)” value in the assay on CA1 pyramidal neurons was “significantly lowered the frequency towards wild type level”. Also, the “afterhyperpolarization (AHP) amplitude of action potentials” value in the assay on mouse brain slices is “increased”.
